Data set [1] has as its system lung adenocarcinoma cell line H441. The experiment in a line: Cell proliferation (hexosaminidase assay) in lung adenocarcinoma H441 cells, Example 1. It is filed as cell-based, human. To be noted: for IC50: Homo sapiens, NCI-H441, 24 h of treatment. The procedure: Cell Proliferation Studies: In order to assess the anti-proliferative activity of the synthesized compounds, an in vitro cell culture system of lung adenocarcinoma cell line H441 was used. The cell detachment and anti-proliferative activity was measured as a decrease in hexosaminidase enzyme activity associated with remainder of the adhered cells. [Landegren, 1984] […] The concentration versus cell proliferation plots were analyzed by an exponential fit (Table 1). The results were compared with the anti-proliferative activity of compound 1.
(§1) Cell Culture and drug treatment: Human lung adenocarcinoma cell line NCI-H441 (ATCC Number: HTB-174) was obtained from the American Type Culture Collection (Manassas, Va.). H441 cells were maintained at 37° C. with 5% CO2 in McCoy's 5A Medium (Invitrogen, Carlsbad, Calif.) supplemented with 5% heat-inactivated fetal bovine serum (FBS). All media contained gentamicin at 50 μg/ml (GIBCO Laboratories, Grand Island, N.Y.). Other cells lines (PANC-1, MiaPaCa-2 and PC-3) were also similarly maintained, except that the cell culture medium was RPMI 1640 instead of McCoy's.
To evaluate the anti-proliferative activity of synthesized bis(2-fluorobenzylidene)-4-piperidone and its derivatives, the cells were seeded in 96-well flat-bottom tissue culture plates at a density of 10×10^3 cells per well. The cells were allowed to attach and grow overnight. The test compounds were solubilized in dimethyl sulfoxide (DMSO), filtered through 0.2 μm nylon filter and added to cells at 1, 10, 25 and 100 μM concentrations in culture medium supplemented with 5% FBS. The DMSO concentration was maintained at 0.1% per well. Control wells received equivalent volume of DMSO without any test compounds. The cells were allowed to remain in the treatment medium for 24, 48 and 72 hours.
Cell Proliferation: The total number of cells after the treatment period was estimated by the hexosaminidase assay. [Landegren, 1984] Briefly, the medium was removed and hexosaminidase substrate solution in citrate buffer pH 5 (7.5 mM), […] (Calbiochem, San Diego, Calif.) was added at 60 μl per well. The plate was incubated at 37° C. in 100% humidity for 30 minutes, before stopping the reaction with 90 μl of 50 mM glycine containing 5 mM of EDTA (pH 10.4). The absorbance was measured at 405 nm. The experiments were conducted in triplicate, and repeated at least twice. The data were analyzed as percent of control, where the control wells were treated with equivalent amounts of DMSO alone, and the analyzed data was presented as average±standard error of mean. The differences among mean values were deemed significant at p<0.05.
For IC50 calculations, a plot between the drug concentration and hexosaminidase activity was generated and the data was fitted either linearly or exponentially. The best fit was used for further processing of data.

Data set [2] concerns caspase-3/7 activation in H441 cells. Kind of data set: Caspase-3 immunoblotting and Apo-One caspase-3/7 assay in H441 cells. It is filed as cell-based, human. For orientation: Immunoblotting shows a protein as a band on a membrane.
The test system of data set [3] is PANC-1 (pancreatic cancer) cells. The experiment in a line: Cell proliferation study in PANC-1 cells. It is filed as cell-based. The procedure: as §1
To evaluate the anti-proliferative activity of synthesized bis(2-fluorobenzylidene)-4-piperidone and its derivatives, the cells were seeded in 96-well flat-bottom tissue culture plates at a density of 10×10^3 cells per well. The cells were allowed to attach and grow overnight. The test compounds were solubilized in dimethyl sulfoxide (DMSO), filtered through 0.2 μm nylon filter and added to cells at 1, 10, 25 and 100 μM concentrations in culture medium supplemented with 5% FBS. […]
Cell Proliferation: The total number of cells after the treatment period was estimated by the hexosaminidase assay. […] The absorbance was measured at 405 nm. […] The data were analyzed as percent of control, where the control wells were treated with equivalent amounts of DMSO alone, and the analyzed data was presented as average±standard error of mean. […]

The test system of data set [4] is colon (HCT-116) cancer cells. The experiment in a line: Proliferation of colon cancer HCT-116 cells. It is filed as cell-based.
For a further data set, the system named is Nrf2. Kind of data set: Nuclear extract immunoblot of phospho-Nrf2. It is filed as cell-based, human. Conditions: H441 cells, nuclear fraction. The procedure:
Nuclear extract and immunoblotting: Nuclear extract was prepared using a kit from Active Motif (Carlsbad, Calif.) following the manufacturer's instructions. Briefly, H441 cells were allowed to grow for 24 h in 6-well plates before treatment with CLEFMA. After 12 or 24 h, the cells were scraped into ice-cold PBS and centrifuged at 300×g for 5 min to obtain a pellet. The pelleted cells was resuspended in a hypotonic buffer (20 mM HEPES, pH 7.5, 5 mM NaF, 0.1 mM EDTA, and 0.01 mM Sodium molybdate) and allowed to swell for 15 min on ice. The cells were lysed by adding 50 μl 10% Nonidet P-40 and centrifuged for 30 sec to separate the cytoplasmic and nuclear fractions. The nuclear fraction was extracted after 30 min in an ice-cold complete lysis buffer obtained with the kit. The nuclear extract was separated by centrifugation for 10 min at 14,000×g at 4° C. To immunoblot nuclear factor-erythroid 2-related factor 2 (Nrf2), the nuclear protein (10 μg) was separated on a 4/20% SDS-PAGE gel, transferred onto nitrocellulose membrane and probed with rabbit anti-phospho-Nrf2 antibody and HRP-conjugated goat anti-rabbit IgG antibody. The chemiluminescence signal was developed by Pierce SuperSignal West Femto reagent (Thermo Scientific, Rockford, Ill.). Equal protein loading was confirmed by stripping the blot and re-probing it with anti-actin antibody. […]

In a further data set the test system is H441 cells. Kind of data set: Cell proliferation assay in H441 cells (hexosaminidase), Example 3. The data set is classed as cell-based, human. Here is the method:
Cell proliferation assay: CLEFMA was synthesized and analyzed for purity by the methods detailed elsewhere. Doxorubicin (DOX, GBiosciences, Maryland Heights, Mo.), Paclitexal (PAX, EMD Chemicals, Gibbstown, N.J.), Curcumin (CUR, Sigma, St. Louis, Mo.) and Gemcitabine (GMCB, Acros Organics, Morris Plains, N.J.) were obtained from commercial sources. For cell proliferation assays, the cells were seeded in 96-well, flat-bottom tissue culture plates at a density of 5,000 cells per well. The cells were allowed to adhere and grow overnight, followed by their treatment with drugs (0-20 μM). All drugs were added as solutions in dimethylsulfoxide (DMSO) filtered through 0.2-μm nylon filters; control wells received identical amounts of DMSO without any drugs. The inhibition of cell proliferation was determined after 24-48 h by measuring the decrease in hexosaminidase activity as described by Landegren [Landegren, 1984]; para-nitrophenol-N-acetyl-beta-D-glucosaminide was used as a substrate for the hexosaminidase enzyme. To assess the effect of antioxidants, the cells were simultaneously treated with catalase (CAT, 1000 U), superoxide dismutase (SOD, 500 U) and N-acetylcysteine (NAC, 1 mM). A non-toxic concentration of CAT (Worthington, N.J.), SOD (Sigma, St. Louis, Mo.) and NAC (Enzo Life Sciences, Plymouth Meeting, Pa.) was established in H441 cells prior to these experiments.

Like-named read-outs stand apart in the source and are kept apart here.

Usually IC50 stands for the midpoint of a concentration-inhibition curve. As for `O=C(O)C=CC(=O)N1CC(=Cc2ccccc2Cl)C(=O)C(=Cc2ccccc2Cl)C1` [Compound 29, 4-[3,5-Bis-(2-chlorobenzylidene)-4-oxo-piperidin-1-yl]-4-oxo-2-butenoic acid], in data set [1], the “anti-proliferative activity in words, relative to the comparator named” value is reported as “enhanced the potency of antiproliferative action”. Further, the 50% inhibitory concentration (IC50) is 1000 nM in data set [1] (1-100 μM tested, fitted plot, read-out: IC50 value) and under 30000 nM in data set [1] (read-out: IC50 (grouping relative to compound 1)). The “caspase-3 activation level (immunoblotting)” value in data set [2] (H441 cell lysates) is on record as “no change in its activation level”. In addition, the “cleavage-based caspase activation (Apo-One caspase-3/7 assay)” value in data set [2] (H441 cells) is on record as “no cleavage-based caspase activation was seen”. The “potency of antiproliferative action” value in data set [3] is “enhanced the potency of antiproliferative action”. The control of proliferation entry in data set [4] is given as “equally potent in controlling proliferation”. For the same compound, the “Nrf2 activation and nuclear translocation” value in the data set on Nrf2 is “activated Nrf2 and caused its translocation into the nuclear fraction”. Further, in the data set with H441 cells (10 and 20 μM), the “antiproliferative activity versus PAX, GMCB, DOX, CUR” value is “antiproliferative activity comparable to that shown by these drugs”. Also, in the data set with H441 cells (CLEFMA 10 and 20 μM), the “effect of co-administered CAT, SOD, NAC on cytotoxicity” value is reported as “partially rescue CLEFMA-induced cytotoxicity”.

The record behind these values is patent US9359196B2, “Antiproliferative compositions comprising curcumin analogs and methods of producing and using same” (The Board of Regents of the University of Oklahoma, priority 2009, dated 2016).
